Tests used:
Type in all cases: biochemical
ACE1 [1] = system: ACE1
ACE1 [2] = system: ACE1; remark: listed apart in the source
ACE2 = target: T1, ACE2 (Mus musculus, UniProt Q8R0I0); assay: SELDI-TOF-MS ACE assay, kidney extract incubated with AngI (ACE2 activity); details: AngI + kidney extract + MLN 4760
T1 construct: Kidney extract (source of ACE1 & ACE2); from tissue; host or cells: kidney extract
Description: FIG. 3: SELDI-TOF-MS ACE assay. Kidney extract (source of ACE1 & ACE2) were incubated with AngI A: kidney extract control; B: AngI; C: AngI+kidney extract, showing peptides generated from ACE1 & ACE2; D: AngI+kidney extract+MLN 4760 (ACE2 inhibitor).

T1 sequence (Q8R0I0 18-805): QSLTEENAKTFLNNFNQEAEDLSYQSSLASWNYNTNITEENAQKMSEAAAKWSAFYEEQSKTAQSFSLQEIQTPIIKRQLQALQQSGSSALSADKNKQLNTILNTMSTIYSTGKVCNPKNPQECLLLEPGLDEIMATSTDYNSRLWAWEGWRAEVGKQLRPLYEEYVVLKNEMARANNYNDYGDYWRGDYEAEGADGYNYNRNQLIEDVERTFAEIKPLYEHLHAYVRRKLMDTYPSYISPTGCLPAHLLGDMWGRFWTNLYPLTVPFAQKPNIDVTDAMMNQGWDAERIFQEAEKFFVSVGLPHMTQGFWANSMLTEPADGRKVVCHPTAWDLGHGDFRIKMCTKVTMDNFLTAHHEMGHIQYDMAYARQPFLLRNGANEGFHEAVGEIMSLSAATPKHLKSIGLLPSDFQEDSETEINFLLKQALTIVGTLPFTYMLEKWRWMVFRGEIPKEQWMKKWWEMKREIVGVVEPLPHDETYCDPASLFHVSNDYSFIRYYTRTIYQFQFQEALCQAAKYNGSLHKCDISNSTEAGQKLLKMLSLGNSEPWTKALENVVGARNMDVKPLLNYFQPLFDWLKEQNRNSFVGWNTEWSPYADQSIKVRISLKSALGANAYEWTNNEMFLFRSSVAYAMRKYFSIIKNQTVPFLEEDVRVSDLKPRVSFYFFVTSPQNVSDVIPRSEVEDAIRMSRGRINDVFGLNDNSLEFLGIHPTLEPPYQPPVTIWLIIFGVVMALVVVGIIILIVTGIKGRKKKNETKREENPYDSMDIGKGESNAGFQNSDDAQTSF

CC(C)C[C@H](N[C@@H](Cc1cncn1Cc1cc(Cl)cc(Cl)c1)C(=O)O)C(=O)O [MLN 4760] was tested, and the AngII level (ACE1 [1]) was “increased”, the “effect on ACE1” value (ACE1 [1]) was “without affecting ACE1” and the “effect on the formation of AngII” value (ACE1 [2]) was “no effect”. The “cleavage of AngI to Ang (1-7)” value (ACE2) was “inhibited”.

From patent publication US20060257861A1 (priority 2005, published 2006)
